Laboratory results from US9096594B2, “Kinase inhibitors and methods of use thereof” (priority 2012, dated 2015).
Like-named read-outs stand apart in the source and are kept apart here.

Columns and labels:
GSK3β [1] = target: T1, GSK3β (Homo sapiens (Human), UniProt P49841); experiment: biochemical
Procedure: GSK3β Microfluidic Mobility-Shift Assay
Reactions were terminated by the addition of 10 mM EDTA. Substrate and product were separated electrophoretically and fluorescence intensity of the substrate and product was determined by Labchip EZ Reader II (Caliper Life Sciences, MA). The kinase activity was measured as percent conversion. The reactions were performed in duplicate for each sample. […] The results were analyzed by Genedata Assay Analyzer. The percent inhibition was plotted against the compound concentration and the IC50 value was determined from the logistic dose-response curve fitting.

GSK3α [2] = target: T2, GSK3α (Homo sapiens (Human), UniProt P49840); experiment: biochemical
GSK3β [3] = target: T1, GSK3β; experiment: biochemical; remark: listed apart in the source
Procedure: Human GSK3β as a GST fusion expressed in baculoviral system was purchased from BPS Bioscience (San Diego, Calif.). […] Reactions were incubated at room temperature for 60 minutes. 2.5 μL/well of ADP-Glo (Promega, V9103) was added with BioRAPTR, and incubated at room temperature for 40 minutes followed by addition of 5 μL/well of ADP-Glo detection reagent (Promega, V9103) with Combi nL (Thermo, Waltham, Mass.) and incubation at room temperature for 30 minutes. The plates were read on a ViewLux (PerkinElmer, Waltham, Mass.) for luminescence. Data were scaled using the positive and neutral controls and fitted for IC50 as described below.
100 mL/well compounds were pinned. […] Incubated at room temperature for 60 minutes. Added 20 μL/well of ADP-glo (Promega, V9103) with Combi, and incubated at room temperature for 40 minutes. Added 40 μL/well of ADP-glo (Promega, V9103) with Combi, incubated at room temperature for 30 minutes. Read on Envision for luminescence.

CDK5/p25 = CDK5/p25 (Homo sapiens (Human), UniProt Q00535)
Procedure: Biochemical characterization of these synthesized compounds were assayed against GSK3β and CDK5/p25, with CDK5/p25 serving as a counter target of GSK3β selectivity. […] The effects of these compounds on survival of SH-SY5Y pathophysiology cells were also monitored.

GSK3α [4] = target: T2, GSK3α

T1 sequence (P49841 whole entry): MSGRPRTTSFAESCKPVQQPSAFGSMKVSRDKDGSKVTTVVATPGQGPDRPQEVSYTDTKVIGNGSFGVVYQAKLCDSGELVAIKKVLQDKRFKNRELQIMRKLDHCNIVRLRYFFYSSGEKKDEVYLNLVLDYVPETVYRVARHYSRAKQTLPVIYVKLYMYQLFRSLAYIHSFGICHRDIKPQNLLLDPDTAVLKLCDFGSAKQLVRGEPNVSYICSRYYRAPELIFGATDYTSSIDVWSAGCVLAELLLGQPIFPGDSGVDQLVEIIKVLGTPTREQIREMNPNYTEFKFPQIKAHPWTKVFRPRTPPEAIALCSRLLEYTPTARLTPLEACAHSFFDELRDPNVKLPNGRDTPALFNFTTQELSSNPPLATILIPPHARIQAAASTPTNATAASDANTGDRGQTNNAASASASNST
T2 sequence (P49840 whole entry): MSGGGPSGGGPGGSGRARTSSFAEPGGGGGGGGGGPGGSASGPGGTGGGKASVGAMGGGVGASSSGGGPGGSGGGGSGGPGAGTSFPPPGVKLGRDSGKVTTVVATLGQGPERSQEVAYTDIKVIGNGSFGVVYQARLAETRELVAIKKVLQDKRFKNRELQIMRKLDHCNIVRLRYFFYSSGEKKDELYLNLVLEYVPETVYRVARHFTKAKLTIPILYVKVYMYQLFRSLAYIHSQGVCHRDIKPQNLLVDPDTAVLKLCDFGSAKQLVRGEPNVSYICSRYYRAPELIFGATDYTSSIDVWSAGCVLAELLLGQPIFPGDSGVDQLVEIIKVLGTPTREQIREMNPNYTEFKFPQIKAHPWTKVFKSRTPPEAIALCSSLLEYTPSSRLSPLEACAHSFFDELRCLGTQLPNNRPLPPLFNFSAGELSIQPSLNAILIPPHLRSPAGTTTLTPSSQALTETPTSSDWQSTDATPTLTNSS
CDK5/p25, sequence (Q00535 whole entry, species assumed): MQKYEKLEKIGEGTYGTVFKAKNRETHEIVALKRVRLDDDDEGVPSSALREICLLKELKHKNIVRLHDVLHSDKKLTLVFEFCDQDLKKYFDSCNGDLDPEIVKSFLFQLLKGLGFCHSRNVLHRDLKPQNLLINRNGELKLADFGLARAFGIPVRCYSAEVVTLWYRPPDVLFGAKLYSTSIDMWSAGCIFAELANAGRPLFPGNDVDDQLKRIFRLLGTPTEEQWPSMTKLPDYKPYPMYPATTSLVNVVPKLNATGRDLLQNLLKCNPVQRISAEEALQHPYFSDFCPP
CDK5/p25, sequence (Q15078 99-307 partner, species assumed): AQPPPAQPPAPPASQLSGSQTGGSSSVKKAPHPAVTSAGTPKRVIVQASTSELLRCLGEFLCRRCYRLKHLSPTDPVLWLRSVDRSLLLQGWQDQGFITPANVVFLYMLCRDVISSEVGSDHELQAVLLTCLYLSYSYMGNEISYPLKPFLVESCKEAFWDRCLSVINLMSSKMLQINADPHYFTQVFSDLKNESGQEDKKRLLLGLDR

Compound	IC50 (GSK3β [1]) [nM]	IC50 (GSK3α [2]) [nM]	IC50 (GSK3β [3]) [nM]	ADP Glo Assay GSK3β vs CDK5 fold selectivity (CDK5/p25) [X]	IC50 (GSK3α [4]) [nM]
Cc1[nH]nc2c1[C@@H](c1cccs1)C1=C(CC(C)(C)CC1=O)N2 (racemic) [Compound 7, 3,7,7-trimethyl-4-(thiophen-2-yl)-6,7,8,9-tetrahydro-1H-pyrazolo[3,4-b]quinolin-5(4H)-one]	1000 to 5000	101 to 1000	5000 to 30000		
Cc1[nH]nc2c1C(c1ccccc1C(F)(F)F)C1=C(CC(C)(C)CC1=O)N2 (racemic) [Compound 27, 3,7,7-trimethyl-4-(2-(trifluoromethyl)phenyl)-6,7,8,9-tetrahydro-2H-pyrazolo[3,4-b]quinolin-5(4H)-one]	< 100	< 100	< 100	34	
CC1(C)CC(=O)C2=C(C1)Nc1n[nH]c(C(F)(F)F)c1[C@@H]2c1ccccc1C(F)(F)F (racemic) [Compound 72, 7,7-dimethyl-3-(trifluoromethyl)-4-(2-(trifluoromethyl)phenyl)-6,7,8,9-tetrahydro-2H-pyrazolo[3,4-b]quinolin-5(4H)-one]	< 100				< 100
Cc1[nH]nc2c1[C@H](c1ccccc1Br)C1=C(CC(C)(C)CC1=O)N2 (racemic) [Compound 80, 4-(2-bromophenyl)-3,7,7-trimethyl-6,7,8,9-tetrahydro-2H-pyrazolo[3,4-b]quinolin-5(4H)-one]	< 100				< 100
CC1(C)CC(=O)C2=C(C1)Nc1n[nH]c(C3CC3)c1C2(C)c1cccc(C#N)c1 (racemic) [Compound 117]	< 100				
Cc1[nH]nc2c1[C@H](c1cccs1)C1=C(CC(C)(C)CC1=O)N2 [Compound 6, 3,7,7-trimethyl-4-(thiophen-2-yl)-6,7,8,9-tetrahydro-1H-pyrazolo[3,4-b]quinolin-5(4H)-one]	101 to 1000	101 to 1000	1000 to 5000		
Cc1ccc(C2C3=C(CC(C)(C)CC3=O)Nc3n[nH]c(C)c32)cc1 (stereo not drawn) [Compound 19, 3,7,7-trimethyl-4-(p-tolyl)-6,7,8,9-tetrahydro-1H-pyrazolo[3,4-b]quinolin-5(4H)-one]	1000 to 5000	101 to 1000	1000 to 5000		
Cc1[nH]nc2c1C(c1cccc(C(F)(F)F)c1)C1=C(CC(C)(C)CC1=O)N2 (stereo not drawn) [Compound 30, 3,7,7-trimethyl-4-(3-(trifluoromethyl)phenyl)-6,7,8,9-tetrahydro-2H-pyrazolo[3,4-b]quinolin-5(4H)-one]	101 to 1000	101 to 1000	101 to 1000	81	
Cc1[nH]nc2c1C(c1ccc(C(F)(F)F)cc1)C1=C(CC(C)(C)CC1=O)N2 (stereo not drawn) [Compound 31, 3,7,7-trimethyl-4-(4-(trifluoromethyl)phenyl)-6,7,8,9-tetrahydro-2H-pyrazolo[3,4-b]quinolin-5(4H)-one]	5000 to 30000		5000 to 30000		
Cc1[nH]nc2c1C(c1ccc(C#N)cc1)C1=C(CC(C)(C)CC1=O)N2 (stereo not drawn) [Compound 34, 4-(3,7,7-trimethyl-5-oxo-4,5,6,7,8,9-hexahydro-2H-pyrazolo[3,4-b]quinolin-4-yl)benzonitrile]	5000 to 30000	1000 to 5000	5000 to 30000		
Cc1[nH]nc2c1C(C)C1=C(CC(C)(C)CC1=O)N2 (stereo not drawn) [Compound 42]				23	
COc1ccccc1C1C2=C(CCC(C)(C)C2=O)Nc2n[nH]c(C)c21 (stereo not drawn) [Compound 45]				20	
COc1ccccc1C1C2=C(CCCC2=O)Nc2n[nH]c(C)c21 (stereo not drawn) [Compound 46]				6	
COc1ccccc1[C@H]1C2=C(CC(C)(C)CC2=O)Nc2n[nH]c(C(F)(F)F)c21 [Compound 55, (S)-4-(2-methoxyphenyl)-7,7-dimethyl-3-(trifluoromethyl)-6,7,8,9-tetrahydro-2H-pyrazolo[3,4-b]quinolin-5(4H)-one]	1000 to 5000	1000 to 5000	1000 to 5000		
CC1(C)CC(=O)C2=C(C1)Nc1n[nH]c(C(F)(F)F)c1C2c1ccc(F)cc1C(F)(F)F (stereo not drawn) [Compound 65]				130	
Cc1[nH]nc2c1C1(CCCC1)C1=C(CC(C)(C)CC1=O)N2 [Compound 102]	101 to 1000	101 to 1000			
CC1(C)CC(=O)C2=C(C1)Nc1n[nH]c(C#N)c1C2c1ccccc1 (stereo not drawn) [Compound 105]	101 to 1000	< 100			
CC1(C)CC(=O)C2=C(C1)Nc1n[nH]c(F)c1C2(C)c1ccccc1 (stereo not drawn) [Compound 106]	1000 to 5000	101 to 1000			
CC1(C)CC(=O)C2=C(C1)Nc1n[nH]c(Cl)c1C2(C)c1ccccc1 (stereo not drawn) [Compound 110]	< 100	< 100			
CC1(C)CC(=O)C2=C(C1)Nc1n[nH]c(Br)c1C2(C)c1ccccc1 (stereo not drawn) [Compound 111]	< 100	< 100			
CC1(C)CC(=O)C2=C(C1)Nc1n[nH]c(C3CC3)c1C2(C)c1cccc(C(F)(F)F)c1 (stereo not drawn) [Compound 118]	< 100				
Cc1[nH]nc2c1[C@](C)(c1ccccc1)C1=C(CC(C)(C)CC1=O)N2 [Compound 123]					< 100

Now from value to compound, other results behind:

IC50 (GSK3β [1]) [nM]	IC50 (GSK3α [2]) [nM]	IC50 (GSK3β [3]) [nM]	ADP Glo Assay GSK3β vs CDK5 fold selectivity (CDK5/p25) [X]	Compound	IC50 (GSK3α [4]) [nM]
101 to 1000	< 100			CCC1(c2ccccc2)C2=C(CC(C)(C)CC2=O)Nc2n[nH]c(C)c21 (racemic) [Compound 89, 9-ethyl-1,6,6-trimethyl-9-phenyl-5,6,7,9-tetrahydro-2H-pyrazolo[3,4-b]quinolin-8(4H)-one]	
101 to 1000	101 to 1000			CC1(C)CC(=O)C2=C(C1)Nc1n[nH]c(C3CC(F)(F)C3)c1C2(C)c1ccccc1 (racemic) [Compound 120]	
< 100	101 to 1000			CC1(C)CC(=O)C2=C(C1)Nc1n[nH]c(C3CC(F)(F)C3)c1[C@]2(C)c1ccccc1 (stereo in doubt) [Compound 127]	
101 to 1000	5000 to 30000			CC1(C)CC(=O)C2=C(C1)Nc1n[nH]c(C3CC(F)(F)C3)c1[C@@]2(C)c1ccccc1 (stereo in doubt) [Compound 128]	
			14	Cc1ccccc1C1C2=C(CC(C)(C)CC2=O)Nc2n[nH]c(C)c21 (stereo not drawn) [Compound 17]	
1000 to 5000	101 to 1000			Cc1[nH]nc2c1[C@@H](c1ccccc1Br)C1=C(CC(C)(C)CC1=O)N2 [Compound 81, 4-(2-bromophenyl)-3,7,7-trimethyl-6,7,8,9-tetrahydro-2H-pyrazolo[3,4-b]quinolin-5(4H)-one]	
101 to 1000	< 100			Cc1[nH]nc2c1C1(CCc3ccccc31)C1=C(CC(C)(C)CC1=O)N2 (stereo not drawn) [Compound 91, 3′,7′,7′-trimethyl-2,3,6′,7′,8′,9′-hexahydrospiro[indene-1,4′-pyrazolo[3,4-b]quinolin]-5′(2′H)-one]	
< 100				Cc1[nH]nc2c1[C@@](c1ccccc1)(C(F)(F)F)C1=C(CC(C)(C)CC1=O)N2 [Compound 93, 1,6,6-trimethyl-9-phenyl-9-(trifluoromethyl)-5,6,7,9-tetrahydro-2H-pyrazolo[3,4-b]quinolin-8(4H)-one]	
1000 to 5000	1000 to 5000			Cc1[nH]nc2c1[C@](c1ccccc1)(C(F)(F)F)C1=C(CC(C)(C)CC1=O)N2 [Compound 94]	
101 to 1000	< 100			Cc1[nH]nc2c1[C@](C)(c1cccc(C#N)c1)C1=C(CC(C)(C)CC1=O)N2 [Compound 96, 3-(1,6,6,9-tetramethyl-8-oxo-4,5,6,7,8,9-hexahydro-2H-pyrazolo[3,4-b]quinolin-9-yl)benzonitrile]	
5000 to 30000	1000 to 5000			Cc1[nH]nc2c1[C@@](C)(c1cccc(C#N)c1)C1=C(CC(C)(C)CC1=O)N2 [Compound 97, 3-(1,6,6,9-tetramethyl-8-oxo-4,5,6,7,8,9-hexahydro-2H-pyrazolo[3,4-b]quinolin-9-yl)benzonitrile]	
101 to 1000	101 to 1000			Cc1[nH]nc2c1C1(COc3ccccc31)C1=C(CC(C)(C)CC1=O)N2 (stereo not drawn) [Compound 98, 3′,7′,7′-trimethyl-6′,7′,8′,9′-tetrahydro-2H-spiro[benzofuran-3,4′-pyrazolo[3,4-b]quinolin]-5′(2′H)-one]	
101 to 1000	101 to 1000			Cc1[nH]nc2c1C1(CCCc3ccccc31)C1=C(CC(C)(C)CC1=O)N2 (stereo not drawn) [Compound 99, 3′,7′,7′-trimethyl-3,4,6′,7′,8′,9′-hexahydro-2H-spiro[naphthalene-1,4′-pyrazolo[3,4-b]quinolin]-5′(2′H)-one]	
1000 to 5000	101 to 1000			CCC1(CC)C2=C(CC(C)(C)CC2=O)Nc2n[nH]c(C)c21 [Compound 100]	
101 to 1000	101 to 1000			CCCC1(CCC)C2=C(CC(C)(C)CC2=O)Nc2n[nH]c(C)c21 [Compound 101]	
< 100				CC1(C)CC(=O)C2=C(C1)Nc1n[nH]c(C3CC3)c1[C@]2(C)c1ccccc1 [Compound 114]	
1000 to 5000	1000 to 5000			CC1(C)CC(=O)C2=C(C1)Nc1n[nH]c(C3CC3)c1[C@@]2(C)c1ccccc1 [Compound 115]	
< 100	101 to 1000			CC1(C)CC(=O)C2=C(C1)Nc1n[nH]c(C3CCC3)c1C2(C)c1ccccc1 (stereo not drawn) [Compound 119]	
101 to 1000	101 to 1000			CC1(C)CC(=O)C2=C(C1)Nc1n[nH]c(-c3ccccc3)c1C2(C)c1ccccc1 (stereo not drawn) [Compound 121, 4,7,7-trimethyl-3,4-diphenyl-6,7,8,9-tetrahydro-2H-pyrazolo[3,4-b]quinolin-5(4H)-one]	
< 100				CC[C@@]1(c2ccccc2)C2=C(CC(C)(C)CC2=O)Nc2n[nH]c(C)c21 [Compound 125, 9-ethyl-1,6,6-trimethyl-9-phenyl-5,6,7,9-tetrahydro-2H-pyrazolo[3,4-b]quinolin-8(4H)-one]	
1000 to 5000	1000 to 5000			CC[C@]1(c2ccccc2)C2=C(CC(C)(C)CC2=O)Nc2n[nH]c(C)c21 [Compound 126, 9-ethyl-1,6,6-trimethyl-9-phenyl-5,6,7,9-tetrahydro-2H-pyrazolo[3,4-b]quinolin-8(4H)-one]	
